Measured values: patent US10035760B2, “Inhibitors of human immunodeficiency virus replication” (priority 2013, dated 2018)
Like-named read-outs stand apart in the source and are kept apart here.

Test system: recombinant NL4-3 virus (Renilla luciferase) in MT-2 cells
Assay: HIV cell culture assay (antiviral activity, luciferase readout in infected MT-2 cells)
Format: cell-based
Method in brief: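 Nef-deleted NL4-3 carrying Renilla luciferase, produced by 293T transfection, used to infect MT-2 cells for 4–5 days with serial compound dilutions. Live-cell luciferase signal read as infection marker; EC50 from exponential median-effect equation.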

[1] = Renilla, NL43, read-out: Activity, antiviral activity class, recombinant NL4-3 Renilla luciferase virus in MT-2 cells
[2] = Renilla, NL43, recombinant NL4-3 Renilla luciferase virus in MT-2 cells

Molecule: COc1ncccc1-c1ccccc1S(=O)(=O)NC(=O)N[C@@H](Cc1ccccc1)C(=O)N(C)c1ccc2c(c1)OCO2 [Example 129, (S)—N-(benzo[d][1,3]dioxol-5-yl)-2-(3-((2-(2-methoxypyridin-3-yl)phenyl)sulfonyl)ureido)-N-methyl-3-phenylpropanamide]
- EC50 [1]: 1000 to 10000 nM
- EC50 [2]: 5520 nM

Molecule: CN(C(=O)[C@H](Cc1ccccc1)NC(=O)NS(=O)(=O)c1ccccc1-c1ccc(C(N)=O)cc1)c1ccc2c(c1)OCO2 [Example 131, (S)-2′-(N-((1-(benzo[d][1,3]dioxol-5-yl(methyl)amino)-1-oxo-3-phenylpropan-2-yl)carbamoyl)sulfamoyl)-[1,1′-biphenyl]-4-carboxamide]
- EC50 [1]: 10000 to 100000 nM

Molecule: Cc1ccccc1S(=O)(=O)NC(=O)N[C@@H](Cc1cc(F)cc(F)c1)C(=O)N(C)c1ccc(OC(F)(F)F)cc1 [Example CA-108, (S)-3-(3,5-difluorophenyl)-N-methyl-2-(3-(o-tolylsulfonyl)ureido)-N-(4-(trifluoromethoxy)phenyl)propanamide]
- EC50 [1]: 100 to 1000 nM

Molecule: CCN(C(=O)[C@H](Cc1ccccc1)NC(=O)NS(=O)(=O)c1cccc(-c2cc3c(OC)cccc3[nH]2)c1)c1ccc(OC)cc1 [Example 154, (S)—N-ethyl-2-(3-((3-(4-methoxy-1H-indol-2-yl)phenyl)sulfonyl)ureido)-N-(4-methoxyphenyl)-3-phenylpropanamide]
- EC50 [1]: 100 to 1000 nM
- EC50 [2]: 670 nM

Molecule: Cc1ccccc1S(=O)(=O)NC(=O)N[C@@H](Cc1ccccc1)C(=O)N(C)Cc1ccccn1 [Example 180, (S)—N-methyl-3-phenyl-N-(pyridin-2-ylmethyl)-2-(3-(o-tolylsulfonyl)ureido)propanamide]
- EC50 [1]: 1000 to 10000 nM

Molecule: Cc1ccccc1S(=O)(=O)NC(=O)N[C@@H](Cc1ccccc1)C(=O)N1CCCC1c1cccnc1 (stereo partly drawn) [Example 189, 2-methyl-N-(((2S)-1-oxo-3-phenyl-1-(2-(pyridin-3-yl)pyrrolidin-1-yl)propan-2-yl)carbamoyl)benzenesulfonamide]
- EC50 [1]: 1000 to 10000 nM

Molecule: Cc1ccccc1S(=O)(=O)NC(=O)N[C@@H](Cc1cc(F)cc(F)c1)C(=O)N(C)c1cccc2cnccc12 [Example CA-110, (S)-3-(3,5-difluorophenyl)-N-(isoquinolin-5-yl)-N-methyl-2-(3-(o-tolylsulfonyl)ureido)propanamide]
- EC50 [1]: 100 to 1000 nM

Molecule: CC(C)c1ccccc1S(=O)(=O)NC(=O)N[C@@H](Cc1ccccc1)C(=O)N(C)c1ccc2c(c1)OCO2 [Example 135, (S)—N-(benzo[d][1,3]dioxol-5-yl)-2-(3-((2-isopropylphenyl)sulfonyl)ureido)-N-methyl-3-phenylpropanamide]
- EC50 [1]: 100 to 1000 nM

Molecule: COC(=O)c1ccccc1S(=O)(=O)NC(=O)N[C@@H](Cc1ccccc1)C(=O)N(C)c1ccc2c(c1)OCO2 [Example 23, (S)-methyl 2-(N-((1-(benzo[d][1,3]dioxol-5-yl(methyl)amino)-1-oxo-3-phenylpropan-2-yl)carbamoyl)sulfamoyl)benzoate]
- EC50 [1]: 1000 to 10000 nM

Molecule: C=Cc1ccccc1S(=O)(=O)NC(=O)N[C@@H](Cc1ccccc1)C(=O)N(C)c1ccc2c(c1)OCO2 [Example 136, (S)—N-(benzo[d][1,3]dioxol-5-yl)-N-methyl-3-phenyl-2-(3-((2-vinylphenyl)sulfonyl)ureido)propanamide]
- EC50 [1]: < 100 nM

Molecule: COc1ccc(N(C)C(=O)[C@H](Cc2cccs2)NC(=O)NS(=O)(=O)c2ccccc2C)cc1 [Example 198, (S)—N-(4-methoxyphenyl)-N-methyl-3-(thiophen-2-yl)-2-(3-(o-tolylsulfonyl)ureido)propanamide]
- EC50 [1]: 100 to 1000 nM
- EC50 [2]: 270 nM

Molecule: Cc1ccccc1S(=O)(=O)NC(=O)N[C@@H](CCc1ccccc1)C(=O)N(C)c1ccc2c(c1)OCO2 [Example 209, (S)—N-(benzo[d][1,3]dioxol-5-yl)-N-methyl-4-phenyl-2-(3-(o-tolylsulfonyl)ureido)butanamide]
- EC50 [1]: 10000 to 100000 nM

Molecule: CN(C(=O)[C@H](Cc1ccccc1)NC(=O)NS(=O)(=O)C1(C)CC1)c1ccc2c(c1)OCO2 [Example 4, (S)—N-(benzo[d][1,3]dioxol-5-yl)-N-methyl-2-(3-((1-methylcyclopropyl)sulfonyl)ureido)-3-phenylpropanamide]
- EC50 [1]: 1000 to 10000 nM
- EC50 [2]: 1110 nM

Molecule: CCN(C(=O)[C@H](Cc1ccccc1)NC(=O)NS(=O)(=O)c1cccc(-c2ccnn2C)c1)c1ccc(OC)cc1 [Example 152, (S)—N-ethyl-N-(4-methoxyphenyl)-2-(3-((3-(1-methyl-1H-pyrazol-5-yl)phenyl)sulfonyl)ureido)-3-phenylpropanamide]
- EC50 [1]: < 100 nM
- EC50 [2]: 90 nM

Molecule: Cc1ccccc1S(=O)(=O)NC(=O)N[C@@H](Cc1ccccc1)C(=O)N1C[C@@H]2C[C@H]1CO2 [Example 187, N—(((S)-1-((1S,4S)-2-oxa-5-azabicyclo[2.2.1]heptan-5-yl)-1-oxo-3-phenylpropan-2-yl)carbamoyl)-2-methylbenzenesulfonamide]
- EC50 [2]: > 33300 nM

Molecule: CN(C(=O)[C@H](Cc1ccccc1)NC(=O)NS(=O)(=O)c1ccccc1)c1ccccc1 [Example 87, (S)—N-methyl-N, 3-diphenyl-2-(3-(phenylsulfonyl)ureido)propanamide]
- EC50 [1]: 100 to 1000 nM

Molecule: CN(C(=O)[C@H](Cc1ccccc1)NC(=O)NS(=O)(=O)c1ccc(F)cc1)c1ccc2c(c1)OCO2 [Example 22, (S)—N-(benzo[d][1,3]dioxol-5-yl)-2-(3-((4-fluorophenyl)sulfonyl)ureido)-N-methyl-3-phenylpropanamide]
- EC50 [1]: 100 to 1000 nM

Molecule: CCN(C(=O)[C@H](Cc1ccccc1)NC(=O)NS(=O)(=O)c1cccc(Br)c1)c1ccc(OC)cc1 [Example 112, (S)-2-(3-((3-bromophenyl)sulfonyl)ureido)-N-ethyl-N-(4-methoxyphenyl)-3-phenylpropanamide]
- EC50 [1]: < 100 nM

Molecule: CCN(C(=O)[C@H](Cc1ccccc1)NC(=O)NS(=O)(=O)c1cccc(-c2ccnn2C)c1C)c1ccc(OC)cc1 [Example 158, (S)—N-ethyl-N-(4-methoxyphenyl)-2-(3-((2-methyl-3-(1-methyl-1H-pyrazol-5-yl)phenyl)sulfonyl)ureido)-3-phenylpropanamide]
- EC50 [1]: 100 to 1000 nM
- EC50 [2]: 230 nM

Molecule: CCn1c(C)nc2cc(N(C)C(=O)[C@H](Cc3ccccc3)NC(=O)NS(=O)(=O)c3ccccc3C)ccc21 [Example CA-74, (S)—N-(1-ethyl-2-methyl-1H-benzo[d]imidazol-5-yl)-N-methyl-3-phenyl-2-(3-(o-tolylsulfonyl)ureido)propanamide]
- EC50 [1]: 1000 to 10000 nM
- EC50 [2]: 2030 nM

Molecule: COc1ccc(N(C)C(=O)[C@H](Cc2ccccc2)NC(=O)NS(=O)(=O)c2c(C)n(C)c3ccccc23)cc1 [Example JB-85, (S)-2-(3-((1,2-dimethyl-1H-indol-3-yl)sulfonyl)ureido)-N-(4-methoxyphenyl)-N-methyl-3-phenylpropanamide]
- EC50 [1]: 100 to 1000 nM

Molecule: (S)—N-((1-(3-methoxyazetidin-1-yl)-1-oxo-3-phenylpropan-2-yl)carbamoyl)-2-methylbenzenesulfonamide [Example 190]
- EC50 (recombinant NL4-3 Renilla luciferase virus in MT-2 cells, read-out: EC50): > 100000 nM

Molecule: COc1cc(C)c(N(C)C(=O)[C@H](Cc2ccccc2)NC(=O)NS(=O)(=O)c2ccccc2C)cc1C [Example JB-84, (S)—N-(4-methoxy-2,5-dimethylphenyl)-N-methyl-3-phenyl-2-(3-(o-tolylsulfonyl)ureido)propanamide]
- EC50 [1]: 100 to 1000 nM

Molecule: Cc1ccccc1S(=O)(=O)NC(=O)N[C@@H](Cc1ccccc1)C(=O)N(C)c1ccc2cc[nH]c(=O)c2c1 [Example CA-99, (S)—N-methyl-N-(1-oxo-1,2-dihydroisoquinolin-7-yl)-3-phenyl-2-(3-(o-tolylsulfonyl)ureido)propanamide]
- EC50 [1]: 1000 to 10000 nM

Molecule: CN(C(=O)[C@H](Cc1ccccc1)NC(=O)NS(=O)(=O)c1ccccc1Br)c1ccc2c(c1)OCO2 [Example 29, (S)—N-(benzo[d][1,3]dioxol-5-yl)-2-(3-((2-bromophenyl)sulfonyl)ureido)-N-methyl-3-phenylpropanamide]
- EC50 [1]: < 100 nM

Molecule: Cc1ccccc1S(=O)(=O)NC(=O)N[C@@H](Cc1ccc(Cl)c(Cl)c1)C(=O)N(C)c1ccc2c(c1)OCO2 [Example 59, (S)—N-(benzo[d][1,3]dioxol-5-yl)-3-(3,4-dichlorophenyl)-N-methyl-2-(3-(o-tolylsulfonyl)ureido)propanamide]
- EC50 [1]: 1000 to 10000 nM
- EC50 [2]: 1040 nM

Molecule: CN(C(=O)[C@H](Cc1ccccc1)NC(=O)NS(=O)(=O)c1ccc(Cl)cc1)c1ccc2c(c1)OCO2 [Example 6, (S)—N-(benzo[d][1,3]dioxol-5-yl)-2-(3-((4-chlorophenyl)sulfonyl)ureido)-N-methyl-3-phenylpropanamide]
- EC50 [1]: 100 to 1000 nM

Molecule: CN(C(=O)[C@H](Cc1ccccc1)NC(=O)NS(=O)(=O)c1cc(Cl)cc(Cl)c1)c1ccc2c(c1)OCO2 [Example 11, (S)—N-(benzo[d][1,3]dioxol-5-yl)-2-(3-((3,5-dichlorophenyl)sulfonyl)ureido)-N-methyl-3-phenylpropanamide]
- EC50 [1]: 100 to 1000 nM

Molecule: CCOc1ccc(N(C)C(=O)[C@H](Cc2ccccc2)NC(=O)NS(=O)(=O)c2ccccc2C)cc1 [Example CA-84, (S)—N-(4-ethoxyphenyl)-N-methyl-3-phenyl-2-(3-(o-tolylsulfonyl)ureido)propanamide]
- EC50 [1]: < 100 nM

Molecule: C=C(C)c1cccc(S(=O)(=O)NC(=O)N[C@@H](Cc2ccccc2)C(=O)N(CC)c2ccc(OC)cc2)c1 [Example 139, (S)—N-ethyl-N-(4-methoxyphenyl)-3-phenyl-2-(3-((3-(prop-en-2-yl)phenyl)sulfonyl)ureido)propanamide]
- EC50 [1]: < 100 nM

Molecule: Cc1cccc(N(C)C(=O)[C@H](Cc2ccccc2)NC(=O)NS(=O)(=O)c2ccccc2)c1 [Example 90]
- EC50 [1]: 100 to 1000 nM

Molecule: CCN(C(=O)[C@H](Cc1ccccc1)NC(=O)NS(=O)(=O)c1ccccc1Br)c1ccc(OC)cc1 [Example 201, (S)-2-(3-((2-bromophenyl)sulfonyl)ureido)-N-ethyl-N-(4-methoxyphenyl)-3-phenylpropanamide]
- EC50 [1]: < 100 nM

Molecule: Cc1ccccc1S(=O)(=O)NC(=O)N[C@@H](Cc1ccccc1)C(=O)N(C)c1cccc(C(N)=O)c1 [Example CA-94, (S)-3-(N-methyl-3-phenyl-2-(3-(o-tolylsulfonyl)ureido)propanamido)benzamide]
- EC50 [1]: 1000 to 10000 nM
- EC50 [2]: 3260 nM
